Experimental data from patent publication US8389739B1, “Modulators of retinoid-related orphan receptor gamma” (Orphagen Pharmaceuticals, priority 2006, dated 2013).
Entries after “also recorded” stand apart in the source; their conditions may differ. Read-outs that look alike come from different tables or passages of the source.

Legend:
CHO cells = assay: Cytotoxicity in CHO cells (resazurin conversion); type: cell-based, Chinese Hamster
Experimental: Four hours after transfection, cells were dislodged with trypsin and seeded into a 384-well plate at 8,000 cells/well using a Titertek Multidrop 384. Edge effects within the 384-well plate were minimized by leaving plates at room temperature for 30 min so that cells plated evenly within each well (Lundholt, Scudder et al. 2003). Plates are maintained at 37° C. in a humidified atmosphere with 7% CO2 overnight. […] Approximately 40 hours later, cytotoxicity in the assay well was characterized by addition of the dye resazurin (O'Brien, Wilson et al. 2000) to a final concentration of 3 μM. After incubation for 2 hours at 37 degrees centigrade, the conversion of resazurin to resorufin was measured by fluorescence (excitation at 570 nm and emission at 615 nm). […] Percent viability was determined as 2 hour fluorescence, minus background at t=0 hours, normalized to DMSO controls. For detection of luciferase activity, media was removed from plates after the measurement of resazurin conversion, and SteadyLite luciferase reagent (Perkin-Elmer) was added (30 μl/well). Luminescence is detected with a Victor 2-V plate reader (Perkin-Elmer) and normalized to luciferase activity of DMSO control wells alone.

[1] = target: T1, mLXRα (Liver X receptor alpha) (Mus musculus, UniProt Q9Z0Y9); assay: Transcriptional assay of LXRα (Gal4-LXRα hybrid); type: cell-based
T1 construct: 172-455; expressed in transfected cells; host or cells: CHO cells, transient transfection
T1 sequence (Q9Z0Y9 172-445 limits assumed): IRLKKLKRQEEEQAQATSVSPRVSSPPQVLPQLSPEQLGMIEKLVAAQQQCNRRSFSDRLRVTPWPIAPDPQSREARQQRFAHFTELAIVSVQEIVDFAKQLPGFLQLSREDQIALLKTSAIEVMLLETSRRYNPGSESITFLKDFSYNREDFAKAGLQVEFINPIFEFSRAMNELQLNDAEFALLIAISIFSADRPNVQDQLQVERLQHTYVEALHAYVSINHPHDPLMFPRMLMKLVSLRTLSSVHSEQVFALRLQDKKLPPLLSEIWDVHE
Experimental: (§1) A firefly luciferase reporter gene for Gal4 DBD hybrid receptors, such as Gal4-RORγ, contains five copies of the Gal4 17-mer response element in its promoter and the coding sequence for firefly luciferase (pG5-luc, Promega). CHO (Chinese Hamster Ovary) cells were cultured in Ham's F12 medium supplemented with 10% fetal calf serum (Gemini Biologicals), 10 μg/ml penicillin and streptomycin, and were maintained in a humidified 37° C. incubator (Thermo Electron, Steri-Cycle) with 5% CO2. 24 hours before transfection, cells were plated in T175 flasks (5×10^6 cells/flask) or T75 flasks (1.7×10^6 cells/flask). Transient transfection of CHO cells was performed using TransIT-CHO reagents (Minis, Madison, Wis.) with a mixing ratio of 2:6:1 between plasmid DNA (in μg), TransIT-CHO (in μl) and CHO-mojo (in μl).
(§2) Plates are maintained at 37° C. in a humidified atmosphere with 7% CO2 overnight. Four (4) hours after cell seeding, compounds dissolved in DMSO at 10 mM were added to cells at final concentrations of 20 micromolar (μM) to 20 nanomolar (nM) in 0.2% DMSO in triplicate plates. Approximately 40 hours later, cytotoxicity in the assay well was characterized by addition of the dye resazurin (O'Brien, Wilson et al. 2000) to a final concentration of 3 μM. […] Percent viability was determined as 2 hour fluorescence, minus background at t=0 hours, normalized to DMSO controls. For detection of luciferase activity, media was removed from plates after the measurement of resazurin conversion, and SteadyLite luciferase reagent (Perkin-Elmer) was added (30 μl/well). Luminescence is detected with a Victor 2-V plate reader (Perkin-Elmer) and normalized to luciferase activity of DMSO control wells alone.
A transcriptional assay for LXRα, using a Gal4-LXRα hybrid, was implemented in order to compare RORγ ligand potencies. In addition to LXRα, transcriptional assays for a number of other major nuclear receptors were developed.

human RORγ = target: T2, human RORγ (Homo sapiens, UniProt P51449); assay: Transcriptional assay of human RORγ (Gal4-hRORγ); type: cell-based; conditions: Table 4B
T2 construct: expressed in transfected cells; host or cells: CHO cells, transient transfection
T2 sequence (P51449 253-518): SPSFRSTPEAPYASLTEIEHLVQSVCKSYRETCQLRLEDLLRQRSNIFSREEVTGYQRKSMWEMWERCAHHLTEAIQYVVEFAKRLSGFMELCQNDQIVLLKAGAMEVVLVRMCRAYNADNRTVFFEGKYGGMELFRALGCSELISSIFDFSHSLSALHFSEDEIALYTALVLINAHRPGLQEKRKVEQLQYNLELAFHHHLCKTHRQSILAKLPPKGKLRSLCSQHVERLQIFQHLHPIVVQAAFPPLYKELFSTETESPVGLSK
Experimental: The complete Gal4-hRORγ nucleotide sequence is shown below:
as §1, §2

[2] = system: human IL-17 release from PBMCs; assay: Human IL-17 release from Con A stimulated PBMCs (ELISA); type: cell-based; conditions: 1 μg/ml Con A, 3 days; for reversal of antagonist effect on IL-17 release by agonist: 3 μM each; for Con A stimulated IL-17 release into culture medium: 3 μM
Text: We also investigated whether human IL-17 is subject to regulation by RORγ ligands.

[3] = system: IL-22 release in lymph node cultures; assay: Lymph node cell cultures from MOG-immunized C57BL/6 mice, IL-22 ELISA; type: cell-based
Experimental: FIGS. 15A-B. IL-22 release in lymph node cultures is regulated by RORγ ligands. Lymph node cells from MOG-immunized C57BL/6 mice were cultured for 3 days with 30 μg/ml MOG, […] IL-23 (FIG. 15A) and 3 μM compounds (FIG. 15B). Culture media were analyzed by IL-22 ELISA.
ELISA kits for mouse IL-17 and human IL-17 were from eBioscience (San Diego, Calif.). ELISA assays were performed following the manufacturer's protocol. Certain samples were diluted 20-fold to avoid maximization of enzymatic signals. For mouse IL-22 ELISA, antibodies and standards were from Antigenix America (Huntington Station, N.Y.) and accessory components were from eBioscience. The IL-22 assay protocol was similar to that of the IL-17 assays.
The proinflammatory cytokine IL-22 is also expressed in Th-17 cells. […] In addition, IL-22 seems to have 30-50 fold higher levels than IL-17. […] This is illustrated in FIG. 15.

[4] = system: TH1 cell differentiation from naïve CD4+ T cells; assay: Differentiation of naïve CD4+ T cells with IL-12 (Th-1 protocol), IFN-γ staining by FACS; type: cell-based, mouse
[5] = system: TH-17 cell differentiation from naïve CD4+ T cells; assay: Differentiation of naïve CD4+ T cells, intracellular IL-17/IFN-γ staining by FACS (TH-17 protocol, TGFβ + IL-6); type: cell-based, mouse
[6] = Table 6, read-out: Potency (EC50) at mLXRα

In the case of `O=S(=O)(c1ccccc1)N(CC(F)(F)F)c1ccc(C(O)(C(F)(F)F)C(F)(F)F)cc1` [Compound T0901317, N-(2,2,2-Trifluoro-ethyl)-N-[4-(2,2,2-trifluoro-1-hydroxy-1-trifluoromethyl-ethyl)-phenyl]-benzenesulfonamide, reference compound], the “concentration not cytotoxic to CHO cells” value (CHO cells) is reported as less than 10 µM, the Emax [1] is reported as 100% and the EC50 [1, 6] is reported as 0.1 to 1 µM. For the same compound, the EC50 ([1]; Table 7, no unit printed for this column (b114 gives 1.5 μM for OR-1050), read-out: Transcriptional Assay of LXRα EC50) was 0.14 µM and the “Efficacy at mLXRα” value ([1]; activity of standard ligand at 20 μM) was 120X.
`CCn1c(CNc2ccc(Cl)cc2)nnc1SCC(=O)Nc1cccc2ccccc12` [OR-133008, 2-{5-[(4-Chloro-phenylamino)-methyl]-4-ethyl-4H-[1,2,4]triazol-3-ylsulfanyl}-N-naphthalen-1-yl-acetamide] showed an EC50 (human RORγ) of 6.8 µM and an EC50 [1, 6] greater than 10 µM.
`COC(C)CCC(C)C1CCC2C3CC(O)C4CC(O)CCC4(C)C3CCC12C` (centres unmarked) [OR-12872, 17-(4-Methoxy-1-methyl-pentyl)-10,13-dimethyl-hexadecahydro-cyclopenta[a]phenanthrene-3,6-diol] was tested, and the “reversal of antagonist effect on IL-17 release by agonist” value [2] was “partly reverse the effects of OR-1050 and OR-13571”, the “Con A stimulated IL-17 release into culture medium” value [2] was “does not significantly alter IL-17 release” and the “IL-22 production in LN cultures” value ([3]; 3 μM each (FIG. 15)) was “enhanced”. The “Cell Frequency (%) Th-1 Protocol IFN-γ^+” value ([4]; Table 9, 3 μM (combination 3 μM each), 10 ng/ml IL-12, DMSO 36.3%) was 41.4%, the “Cell Frequency (%) Th-1 Protocol IFN-γ^+” value ([4]; Table 10, 1 μM, DMSO vehicle 29.7%) was 30.8% and the “effect on TH1 cell differentiation” value ([4]; in the presence of IL-12, 3 μM) was “Neither 3 μM OR-1050 nor 3 μM OR-12872 had an effect on the frequency of TH1 cell differentiation”. For the same compound, the EC50 [1, 6] was greater than 10 µM, the “effect on TH-17 cell differentiation” value [5] was “stimulatory; also recorded: able to reverse the effect of OR-1050; also recorded: increases the fraction of IL-17^+ cells” and the “elevation of TH-17 frequency by agonist alone” value ([5]; 3 μM (FIG. 8)) was 60%. The “increase of TH-17 frequency from the lower baseline produced by OR-1050” value ([5]; 3 μM agonist in the presence of 3 μM OR-1050 (FIG. 8)) was 400%, the “Cell Frequency (%) TH-17 Protocol IL-17^+” value ([5]; Table 9, 3 μM (combination 3 μM each), 4 ng/ml TGFβ and 20 ng/ml IL-6, DMSO 2.32%) was 3.91% and the “Cell Frequency (%) TH-17 Protocol IFN-γ^+” value ([5]; Table 9, 3 μM (combination 3 μM each), DMSO 1.60%) was 1.37%. For the same compound, the “Cell Frequency (%) TH-17 Protocol IFN-γ^+” value ([5]; Table 10, 1 μM, DMSO vehicle 0.71%) was 0.65% and the “Cell Frequency (%) TH-17 Protocol IL-17^+” value ([5]; Table 10, 1 μM, DMSO vehicle 2.46%) was 3.96%.
Work on `COc1c(C=NNc2nc(N3CCCCC3)nc(N3CCCCC3)n2)cccc1[N+](=O)[O-]` [OR-2161, N-(4,6-Di-piperidin-1-yl-[1,3,5]triazin-2-yl)-N′-(2-methoxy-3-nitro-benzylidene)-hydrazine] yielded an EC50 (human RORγ) of 1 µM and an EC50 [1, 6] greater than 10 µM.
In the case of `CC(=O)O[C@H]1CC[C@@]2(C)C(CC[C@]3(C)C2C(=O)C=C2C4[C@@H](C)[C@H](C)CC[C@]4(C(=O)O)CC[C@]23C)C1(C)C` (stereo in doubt) [OR-13571, 10-Acetoxy-1,2,6a,6b,9,9,12a-heptamethyl-13-oxo-1,3,4,5,6,6a,6b,7,8,8a,9,10,11,12,12a,12b,13,14b-octadecahydro-2H-picene-4a-carboxylic acid], the “Con A stimulated IL-17 release into culture medium” value [2] is reported as “inhibited”, the EC50 (human RORγ) is reported as 0.2 µM and the EC50 [1, 6] is reported as greater than 10 µM. The “effect on TH-17 cell differentiation” value [5] was “exerted a similar effect on TH-17 differentiation as OR-885 and OR-1050; also recorded: inhibits TH-17 differentiation”, the “Cell Frequency (%) Th-17 Differentiation IFN-γ^+” value ([5]; Table 11, 3 μM, DMSO vehicle 1.03%) was 0.93% and the “Cell Frequency (%) Th-17 Differentiation IL-17^+” value ([5]; Table 11, 3 μM, DMSO vehicle 3.81%) was 1.42%.
For `C[C@@H]1CC[C@@]2(OC1)O[C@H]1C[C@H]3[C@@H]4CC[C@H]5C[C@@H](O)CC[C@]5(C)[C@H]4C[C@@H](O)[C@]3(C)[C@H]1[C@@H]2C` [OR-885, 5α,20α, 22α, 25D-SPIROSTAN-3β, 12β-DIOL], the “reversal of antagonist effect on IL-17 release by agonist” value [2] was “partially reversible by OR-12872”, the “IL-22 production in LN cultures” value [3] was “inhibited” and the “Cell Frequency (%) Th-1 Protocol IFN-γ^+” value ([4]; Table 10, 3 μM, DMSO vehicle 29.7%) was 34.2%. For the same compound, the EC50 (human RORγ) was 5.1 µM, the “EC50 (μM), transcriptional assay of human RORγ” value (human RORγ) was “significantly less potent at hRORγ” and the EC50 [1] was greater than 10 µM. The “Cell Frequency (%) TH-17 Protocol IFN-γ^+” value [5] was 1.45%, the “Cell Frequency (%) TH-17 Protocol IL-17^+” value [5] was 0.52% and the “effect on TH-17 cell differentiation” value [5] was “blocks the differentiation of TH-17 cells”.
